The values that follow come from article PMC12785583, “Coconut Milk-Derived Bioactive Peptides as Multifunctional Agents Against Hyperglycemia, Oxidative Stress, and Glycation: An Integrated Experimental and Computational Study” (International Journal of Molecular Sciences, 2025).

Read-outs that look alike come from different tables or passages of the source. Ends that are not written are not given here.

The nature of data set [1]: DPPH radical scavenging assay. On the procedure: The antioxidant assays of the test compounds were conducted in vitro, following previous studies, using the standard DPPH, ABTS, and superoxide radical scavenging assays. Regarding the DPPH assay, 0.2 mL of the test samples (peptides 1 and 2) at various concentrations was added to 1.2 mL of a 40 μg/mL DPPH solution in methanol. The mixtures were shaken vigorously and incubated in the dark for 20 min, after which the reduction in DPPH absorption was measured at 517 nm. The samples without DPPH and with methanol served as blanks. Ascorbic acid was used as the positive control.
A general note: DPPH is a stable violet radical that fades when it is reduced.

Data set [2] is described as follows: ABTS radical scavenging assay. On the procedure:
Concerning the ABTS assay, the ABTS^•+ radical cation was generated. Subsequently, 0.05 mL of the test samples (peptides 1 and 2) at various concentrations was mixed with 4.00 mL of ABTS^•+ solution and kept in the dark at room temperature for two h. The absorbance was determined at 734 nm using a UV–Vis Spectrophotometer (UV-1280 Shimadzu, Germany). Ascorbic acid was used as the positive control, and samples without the ABTS radical solution served as blanks. The results were expressed as the effective concentration (EC50) values.

Data set [3] is described as follows: superoxide radical scavenging assay (NBT). As to the method:
After 10 min of incubation at 25 °C in the dark, absorbance was recorded at 560 nm. Samples without NBT served as blanks, and ascorbic acid was used as the positive control. The results were expressed as the effective concentration (EC50) values.

Data set [4] in a line: methylglyoxal scavenging (Maillard reaction model, DNPH assay). On the procedure:
This preliminary assay was conducted to evaluate the methylglyoxal scavenging activity of peptides derived from coconut milk. The Maillard reaction was employed to assess the scavenging potential of peptides against methylglyoxal, using parameters as outlined in previous studies by Risum et al., Zhu et al., and Brings et al., with modifications. The reaction mixture (1 mL) consisted of both peptides at different concentrations, methylglyoxal (0.01 mM), phosphate buffer, and water. It was incubated at two temperatures: room temperature (followed by immediate termination) and 37 °C (for 2 h). Following the incubation time, the reaction was terminated by adding 10 μL of glacial acetic acid. Creatine was used as a positive control. The experiments were performed in triplicate.
The scavenging potential of the peptides against methylglyoxal was determined using the DNPH assay. In brief, 25 μL of the sample was mixed with 975 μL of water and 1000 μL of DNPH reagent. The reaction mixture was shaken well and incubated at 37 °C for 10 min. Following incubation, the reaction was terminated by adding 1000 μL of 1.5 N NaOH, and the absorbance of the yellowish-orange complex was measured at 525 nm using […]: the MGO blank and the Creatine blank. Scavenging efficiency was calculated using Equations (4) and (5).(4) ACORR=Asample−Ablank (5) MGOscavenging=1−Acorr/AMGO,corr·100 where Asample is the absorbance of the reaction mixture containing methylglyoxal and the test compound (peptide or creatine), Ablank is the absorbance of the reagent blank (without methylglyoxal and without test compound), and AMGO,corr is the blank-corrected absorbance of the methylglyoxal blank (AMGO-Ablank). The creatine control was processed in the same way as the peptide samples.

The target of data set [5] is aldose reductase. The arrangement: method as in doi:10.3390/separations9090262. To be noted: cited from earlier work.
The target in a further data set is human aldose reductase. The arrangement: method as in doi:10.1016/j.fbio.2025.107775. To be noted: cited from earlier work.
For data set [6] the following is noted: cited from earlier work.
Another data set concerns the target α-glucosidase. Also noted: method as in PMID 31139399. To be noted: soy protein-derived peptides; cited from earlier work.
Another data set relates to human erythrocytes. As to the kind of experiment: hemolytic assay. The data set is classed as cell-based. On the procedure:
The hemolytic potential of the lead peptides was determined following an established erythrocyte hemolysis protocol. In brief, 15 mL of venous blood was drawn from a healthy individual, centrifuged at 3000 rpm for 10 min, and the plasma was discarded. The residual pellet (RBCs) was washed 3 times with PBS (pH 7.4, 0.1 M), and the resultant pellet was resuspended in PBS in a 1:10 ratio. Subsequently, 0.9 mL of the RBC suspension was incubated with 0.1 mL of peptides at various concentrations, a negative control (100 μL PBS + 900 μL RBC suspension), and a positive control (100 μL of 0.5% Triton-X-100 + 900 μL of RBC suspension), and incubated at 37 °C for 24 h. Post incubation, all tubes were centrifuged at 3000 rpm for 10 min. 0.1 mL of the supernatant was then transferred to 96-well plates, and the absorbance of the supernatant was read at 540 nm. […] The corrected values were calculated as Acontrol=Apos−Aneg and Asample=Atest−Aneg where Apos , Aneg and Atest are the absorbance values of the positive control, negative control, and peptide-treated sample (given concentration), respectively.

The target in data set [7] is aldose reductase (Homo sapiens, UniProt P15121). Put plainly: aldose reductase inhibition assay. The data set is classed as biochemical. As to the method: The aldose reductase inhibition assay was performed according to the method described by Alharbi et al.. Briefly, a 1 mL reaction mixture comprised 0.87 mL of 100 mM Sodium phosphate buffer (pH 6.2), 0.05 mL of 3 mM NADPH, 0.01 mL of human aldose reductase (recombinant, 0.2 U/mL), with the enzyme’s activity being 0.2 IU/mL, and 0.02 mL of test compounds (designated as peptide 1 and peptide 2) at different concentrations. 0.05 mL of the substrate (DL-glyceraldehyde, five mM) was incubated in the reaction mixture for 3 min at 25 °C. Enzyme activity was determined by measuring the reduction in NADPH absorption at 340 nm over 10 min. […] Aldose reductase inhibitory activity was expressed as the percentage of inhibition.

Data set [8] addresses T1, porcine pancreatic α-amylase (Sus scrofa, UniProt P00690).
T1 construct: purchased SRL (Sisco Research Laboratories)
T1 sequence (P00690 16-511): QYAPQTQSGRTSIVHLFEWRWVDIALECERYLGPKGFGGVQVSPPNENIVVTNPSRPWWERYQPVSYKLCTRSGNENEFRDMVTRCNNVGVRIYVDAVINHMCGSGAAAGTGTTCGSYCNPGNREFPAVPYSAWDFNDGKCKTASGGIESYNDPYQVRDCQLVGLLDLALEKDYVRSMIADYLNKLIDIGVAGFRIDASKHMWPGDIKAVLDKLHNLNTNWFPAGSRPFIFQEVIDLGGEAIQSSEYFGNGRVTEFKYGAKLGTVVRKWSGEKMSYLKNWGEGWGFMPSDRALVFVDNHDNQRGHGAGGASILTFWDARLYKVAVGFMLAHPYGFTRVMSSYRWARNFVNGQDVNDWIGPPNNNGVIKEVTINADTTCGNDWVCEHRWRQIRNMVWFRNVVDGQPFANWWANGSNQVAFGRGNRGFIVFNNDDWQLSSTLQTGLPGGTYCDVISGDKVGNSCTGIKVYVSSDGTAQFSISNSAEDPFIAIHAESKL
Put plainly: α-amylase inhibition assay. The data set is classed as biochemical. On the procedure:
The enzymatic reaction was initiated by adding the starch substrate and allowed to proceed for 15 min. The reaction was then terminated by adding the 3,5-dinitrosalicylic acid (DNSA) reagent, and the mixture was heated to boiling for 5 min. […] IC50 values were obtained from plots of percentage inhibition versus sample concentration.

For data set [9] the following is noted: within 24 h at 5 mg/mL; cited from earlier work.

With `O=C1O[C@H]([C@@H](O)CO)C(O)=C1O` [Ascorbic acid, reference compound], the “DPPH Radical Scavenging Assay EC50” value in data set [1] was found to be 28.65 ± 0.17 µg/mL. Further, the values for the EC50 in data set [1] (read-out: DPPH Radical Scavenging Assay EC50 (value in bracket) (converted)), in [2] (read-out: ABTS Radical Scavenging Assay EC50 (value in bracket) (converted)) and in data set [3] (read-out: Superoxide Radical Scavenging Assay EC50 (value in bracket) (converted)) were 163 µM, 129 µM and 328 µM, respectively. In addition, the “ABTS Radical Scavenging Assay EC50” value in [2] amounted to 22.74 ± 0.27 µg/mL. In addition, the “Superoxide Radical Scavenging Assay EC50” value in data set [3] turned out to be 57.71 ± 0.16 µg/mL.
Take `CN(CC(=O)O)C(=N)N` [Creatine, reference compound]: the “Methylglyoxal Scavenging EC50 at 37 °C, 2 h” value in data set [4] (37 °C, 2 h) came out at 230.05 ± 0.34 µg/mL. Moreover, the EC50 is 1750 µM in data set [4] (read-out: Methylglyoxal Scavenging EC50 at 37 °C, 2 h (value in bracket), 37 °C, 2 h) and 1750 µM in data set [4] (room temperature, immediate termination, read-out: Methylglyoxal Scavenging EC50 at RT (value in bracket) (converted)).
As to `C[C@@H]1O[C@@H](OC[C@H]2O[C@@H](Oc3c(-c4ccc(O)c(O)c4)oc4cc(O)cc(O)c4c3=O)[C@H](O)[C@@H](O)[C@@H]2O)[C@H](O)[C@H](O)[C@H]1O` [rutin], on aldose reductase [5], the “aldose reductase IC50” value is 7.86 ± 0.33 µg/mL.
Consider `O=C(O)Cn1c(=O)n(Cc2ccc(Br)cc2F)c(=O)c2ccc(Cl)cc21` [zenarestat], for which the “human aldose reductase IC50” value at human aldose reductase is listed as 59.68 ± 0.47 µg/mL.
As for GDMNP, the “superoxide anion radical scavenging EC50” value in data set [6] is 400 ± 8 µg/mL.
On to LLLRW, for which, in data set [6], the “superoxide anion radical scavenging EC50” value was 430 ± 12 µg/mL.
What is called IC50 is the concentration that gives 50% inhibition. “LPLPVLK [soy protein-derived peptide, literature]”: the half-maximal inhibitory concentration (IC50) on α-glucosidase is 237.4 ± 0.52 µM.
Take MQIFVK [Peptide 1, MQIFVK]: in the data set with human erythrocytes, the “Hemolytic Assay (HC50)” value stood at 220.85 ± 0.20 µg/mL. Besides, the “Hemolytic Assay (HC50) (value in bracket)” value with human erythrocytes (red cells of human, 24 h) is given as 288.70 µM. For the same molecule, the IC50 on aldose reductase [7] (mean ± SD, read-out: Aldose Reductase Inhibition IC50 (converted)) was 29.4 µM; at aldose reductase [7] (read-out: Aldose Reductase Inhibition IC50 (value in bracket) (converted)) it was 29.4 µM; in data set [8] (mean ± SD, read-out: α-Amylase Inhibition IC50 (converted)) it was 115 µM; in data set [8] (read-out: α-Amylase Inhibition IC50 (value in bracket) (converted)) it was 115 µM.
Regarding SWLRL, the IC50 on α-glucosidase was 182.1 ± 0.74 µM.
With Triton-X-100 [reference compound], in the data set with human erythrocytes (human RBC, 37 °C, 24 h), the “Hemolytic Assay (HC50)” value worked out at 105.25 ± 0.17 µg/mL and the “Hemolytic Assay (HC50) (value in bracket)” value is 162.67 µM. Besides, the “Hemolytic Assay (HC50)” value with human erythrocytes (human RBC, 37 °C, 24 h, listed as Triton X-100) came to 105.25 µg/mL.
For “VVFPGCPE [Ginkgo biloba peptide, literature]”, the methylglyoxal scavenging result in data set [9] is listed as “up to 66.50%”.
WLRL: the half-maximal inhibitory concentration (IC50) on α-glucosidase is 162.3 ± 0.74 µM.
Consider YFYPEL, for which, in [6], the superoxide scavenging activity is 65.8 µg/mL. For the same molecule, the EC50 in [6] (read-out: superoxide scavenging activity (value in bracket)) is 79.2 µM.
